Test results from patent publication US12310365B2 (priority 2009, dated 2025).
Structures can show the parent of a compound that is named as a salt. Where two headings read alike, the source gives them in different places.

Assays:
Assay type in all cases: in vivo
[1] = system: Botrytis cinerea (Diethofencarb-resistant strain); assay: Tomato gray mold preventive test (Diethofencarb-resistant strain); conditions: Botrytis cinerea, topical, 48 h, read-out: Control value
[2] = system: Pyricularia oryzae; assay: whole plant or invertebrate; conditions: topical, 168 h, read-out: Control value
[3] = system: Pyricularia oryzae; assay: whole plant or invertebrate; conditions: topical, 168 h, read-out: Control value; remark: listed apart in the source
[4] = system: Sphaerotheca fuliginea; assay: Cucumber powdery mildew preventive test; conditions: Podosphaera fuliginea, topical, 168 h; for pest or weed control at 10 ppm: treatment concentration 10 ppm
[5] = system: Sphaerotheca fuliginea; assay: Cucumber powdery mildew curative test; conditions: Podosphaera fuliginea, topical, 168 h; for pest or weed control at 10 ppm: treatment concentration 10 ppm
[6] = system: Phytophthora infestans; assay: whole plant or invertebrate; conditions: in Solanum lycopersicum, topical, 168 h, read-out: Control value
[7] = system: Phytophthora infestans; assay: whole plant or invertebrate; conditions: in Solanum lycopersicum, topical, 168 h, read-out: Control value; remark: listed apart in the source
[8] = system: Pseudoperonospora cubensis; assay: Cucumber downy mildew preventive test; conditions: Pseudoperonospora cubensis, topical, 168 h; for pest or weed control at 10 ppm: treatment concentration 10 ppm
[9] = system: Pseudoperonospora cubensis; assay: Cucumber downy mildew curative test; conditions: Pseudoperonospora cubensis, topical, 168 h, single ingredient; for pest or weed control at 10 ppm: treatment concentration 10 ppm
[10] = treatment concentration 160 ppm
[11] = treatment concentration 4.4 ppm

What does the source list for `CC1(C)N=C(c2cnc3ccccc3c2)c2ccccc2C1(F)F` [B, 3-(4,4-difluoro-3,3-dimethyl-3,4-dihydroisoquinolin-1-yl)quinoline]?
pest or weed control at 10 ppm [1]: 83%; pest or weed control at 10 ppm [2]: 83%; pest or weed control at 10 ppm [3]: 86%; pest or weed control at 10 ppm [4]: 60%; pest or weed control at 10 ppm [5]: 73%; pest or weed control at 10 ppm [6]: 0%; pest or weed control at 10 ppm [7]: 0%; pest or weed control at 10 ppm [8]: 28%; pest or weed control at 10 ppm [9]: 33%

Which pest or weed control at 10 ppm [1] does the source give for `C[Si](C)(C)CC(O)(Cn1cncn1)c1ccc(F)cc1` (stereo not drawn) [Simeconazole] here?
Its pest or weed control at 10 ppm is 33%.

What about the pest or weed control at 10 ppm [4] of the same molecule?
The pest or weed control at 10 ppm was 0%.

And the pest or weed control at 10 ppm [5]?
Its pest or weed control at 10 ppm is 33%.

For `Cc1ccc(C(=O)NC[C@@H](NC(=O)OC(C)C)C(F)(F)F)cc1` [Compound 2009, Isopropyl ((1R)-2,2,2-trifluoro-1-{[(4-methylbenzoyl)amino]methyl}ethyl)-carbamate], which pest or weed control at 5 ppm [2] is on record?
Its pest or weed control at 5 ppm is 67%.

How did the pest or weed control at 5 ppm [2] turn out when `Cc1ccc(C(=O)NC[C@@H](NC(=O)OC(C)C)C(C)(C)C)cc1` [Compound 2002, Isopropyl ((1S)-2,2-dimethyl-1-{[(4-methylbenzoyl)amino]methyl}propyl)-carbamate] was run?
The pest or weed control at 5 ppm was 33%.

What does the source list for `CCCOC(=O)NCCCN(C)C` [Propamocarb hydrochloride]?
pest or weed control at 160 ppm [6]: 0%; pest or weed control at 160 ppm [7]: 0%; pest or weed control at 160 ppm [8, 10]: 20%; pest or weed control at 160 ppm [9, 10]: 0%

What does the source list for `N#Cc1c(Cl)c(Cl)c(Cl)c(C#N)c1Cl` [TPN, Chlorothalonil (TPN)]?
pest or weed control at 40 ppm [6]: 0%; pest or weed control at 40 ppm [7]: 0%; pest or weed control at 40 ppm ([8]; treatment concentration 40 ppm): 60%; pest or weed control at 40 ppm ([9]; treatment concentration 40 ppm): 83%

`CC1(C)N=C(c2cnc3ccccc3c2)c2cccc(F)c2C1(C)C` [Compound A, 3-(5-fluoro-3,3,4,4-tetramethyl-3,4-dihydroisoquinolin-1-yl)quinoline] was tested. Which pest or weed control at 10 ppm [1] did it give?
Its pest or weed control at 10 ppm is 83%.

And the pest or weed control at 10 ppm [4]?
Its pest or weed control at 10 ppm is 50%.

And the pest or weed control at 10 ppm [5]?
Its pest or weed control at 10 ppm is 67%.

What about the pest or weed control at 10 ppm [6] of the same molecule?
Its pest or weed control at 10 ppm is 0%.

And the pest or weed control at 10 ppm [7]?
The pest or weed control at 10 ppm was 0%.

And the pest or weed control at 10 ppm [8]?
The pest or weed control at 10 ppm was 20%.

And the pest or weed control at 10 ppm [9]?
Its pest or weed control at 10 ppm is 17%.

What does the source list for `N#CC(CCc1ccc(Cl)cc1)(Cn1cncn1)c1ccccc1` (stereo not drawn) [Fenbuconazole]?
pest or weed control at 4.4 ppm [4, 11]: 27%; pest or weed control at 4.4 ppm [5, 11]: 75%

What does the source list for `CCCOC/C(=N\c1ccc(Cl)cc1C(F)(F)F)n1ccnc1` [Triflumizole]?
pest or weed control at 6 ppm ([4]; treatment concentration 6 ppm): 33%; pest or weed control at 6 ppm ([5]; treatment concentration 6 ppm): 67%

For `Cc1ccc(C(=O)NC[C@@H](NC(=O)OC(C)C)C(C)C)cc1` [Compound 2001, Isopropyl ((1S)-2-methyl-1-{[(4-methylbenzoyl)amino]methyl}propyl)-carbamate], which pest or weed control at 5 ppm [2] is on record?
The pest or weed control at 5 ppm was 33%.

Which results are given for `CC(C)(C)C(=O)C(Oc1ccc(Cl)cc1)n1cncn1` (stereo not drawn) [Triadimefon]?
pest or weed control at 10 ppm [4]: 0%; pest or weed control at 10 ppm [5]: 67%

`Cc1ccc(C(=O)NC[C@@H](NC(=O)OCc2ccccc2)C(C)C)cc1` [Compound 2008, Benzyl ((1S)-2-methyl-1-{[(4-methylbenzoyl)amino]methyl}propyl)carbamate] was tested. Which pest or weed control at 5 ppm [2] did it give?
Its pest or weed control at 5 ppm is 33%.

Which pest or weed control at 10 ppm [1] does the source give for `CC1(C)N=C(c2cnc3ccccc3c2)c2cccc(F)c2C1(F)F` [C, 3-(4,4,5-trifluoro-3,3-dimethyl-3,4-dihydroisoquinolin-1-yl)quinoline] here?
The pest or weed control at 10 ppm was 80%.

And the pest or weed control at 10 ppm [4]?
Its pest or weed control at 10 ppm is 65%.

What about the pest or weed control at 10 ppm [5] of the same molecule?
The pest or weed control at 10 ppm was 73%.

What about the pest or weed control at 10 ppm [6] of the same molecule?
The pest or weed control at 10 ppm was 0%.

And the pest or weed control at 10 ppm [7]?
Its pest or weed control at 10 ppm is 0%.

What about the pest or weed control at 10 ppm [8] of the same molecule?
Its pest or weed control at 10 ppm is 33%.

What about the pest or weed control at 10 ppm [9] of the same molecule?
Its pest or weed control at 10 ppm is 33%.

With `Cc1ccc(C(=O)NC[C@@H](NC(=O)OCC(F)(F)F)C(C)(C)C)cc1` [Compound 2005, 2,2,2-Trifluoroethyl ((1S)-2,2-dimethyl-1-{[(4-methylbenzoyl)amino]methyl}-propyl)carbamate] as the molecule, how does the pest or weed control at 5 ppm [2] read?
The pest or weed control at 5 ppm was 67%.

Which pest or weed control at 20 ppm ([4]; treatment concentration 20 ppm) does the source give for `CC(C)(C)C(O)(CCc1ccc(Cl)cc1)Cn1cncn1` (stereo not drawn) [Tebuconazole] here?
Its pest or weed control at 20 ppm is 33%.

And the pest or weed control at 20 ppm ([5]; treatment concentration 20 ppm)?
Its pest or weed control at 20 ppm is 67%.

Which pest or weed control at 5 ppm [2] does the source give for `Cc1ccc(C(=O)NC[C@@H](NC(=O)OCC(F)(F)F)C(C)C)cc1` [Compound 2004, 2,2,2-Trifluoroethyl ((1S)-2-methyl-1-{[(4-methylbenzoyl)amino]methyl}-propyl)carbamate] here?
The pest or weed control at 5 ppm was 67%.

Which pest or weed control at 5 ppm [2] does the source give for `Cc1ccc(C(=O)NC[C@H](C)NC(=O)OCC(F)(F)F)cc1` [Compound 2007, 2,2,2-Trifluoroethyl {(1S)-1-methyl-2-[(4-methylbenzoyl)amino]ethyl}-carbamate] here?
Its pest or weed control at 5 ppm is 67%.

Which pest or weed control at 5 ppm [2] does the source give for `CC(C)OC(=O)N[C@H](CNC(=O)c1cc2ccccc2o1)C(C)C` [Compound 2003, Isopropyl ((1S)-1-{[(1-benzofuran-2-ylcarbonyl)amino]methyl}-2-methyl-propyl)carbamate] here?
The pest or weed control at 5 ppm was 50%.

How did the pest or weed control at 5 ppm [2] turn out when `CC(C)[C@@H](CNC(=O)c1cc2ccccc2o1)NC(=O)OCC(F)(F)F` [Compound 2006, 2,2,2-Trifluoroethyl ((1S)-1-{[(1-benzofuran-2-ylcarbonyl)amino]methyl}-2-methylpropyl)carbamate] was run?
The pest or weed control at 5 ppm was 67%.
